Test results as given in publication PMC6152678, “In Vitro Comparative Study of the Inhibitory Effects of Mangiferin and Its Aglycone Norathyriol towards UDP-Glucuronosyl Transferase (UGT) Isoforms” (Molecules : A Journal of Synthetic Chemistry and Natural …, 2017).

Columns and labels:
[1] = biological target: T1, UGT1A9 (Homo sapiens, UniProt O60656); test: Inhibition of recombinant UGT-catalyzed 4-MU glucuronidation; format: biochemical; conditions: for inhibition at 30 min, 100 µM: human, pH 7.4, probe 4-methylumbelliferone (4-MU), 30 μM, 100 μM compound, 4-MU probe substrate, negative = activation
T1 construct: purchased BD Gentest Corp. (Woburn, MA, USA); host or cells: baculovirus-infected insect cells
T1 sequence (O60656 26-530): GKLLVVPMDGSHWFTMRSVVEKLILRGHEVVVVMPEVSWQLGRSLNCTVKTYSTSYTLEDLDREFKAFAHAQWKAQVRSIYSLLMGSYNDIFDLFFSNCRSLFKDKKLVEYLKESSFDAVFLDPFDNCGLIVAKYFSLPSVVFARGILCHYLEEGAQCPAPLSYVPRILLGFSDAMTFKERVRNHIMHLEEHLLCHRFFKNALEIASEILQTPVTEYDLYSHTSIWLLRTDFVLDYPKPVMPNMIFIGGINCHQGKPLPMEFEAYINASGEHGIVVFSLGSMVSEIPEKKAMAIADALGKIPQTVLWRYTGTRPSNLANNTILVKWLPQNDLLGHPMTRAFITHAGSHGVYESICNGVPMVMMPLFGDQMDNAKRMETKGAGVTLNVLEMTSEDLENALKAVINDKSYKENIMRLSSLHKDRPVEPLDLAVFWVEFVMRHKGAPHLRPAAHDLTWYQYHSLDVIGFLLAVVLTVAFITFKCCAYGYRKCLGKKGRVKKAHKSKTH

[2] = biological target: T2, UGT2B4 (Homo sapiens, UniProt P06133); test: as above; format: biochemical; conditions: pH 7.4, probe 4-methylumbelliferone (4-MU), 1000 μM, 100 μM compound, 4-MU probe substrate, negative = activation
T2 construct: purchased BD Gentest Corp. (Woburn, MA, USA); host or cells: baculovirus-infected insect cells
T2 sequence (P06133 24-528): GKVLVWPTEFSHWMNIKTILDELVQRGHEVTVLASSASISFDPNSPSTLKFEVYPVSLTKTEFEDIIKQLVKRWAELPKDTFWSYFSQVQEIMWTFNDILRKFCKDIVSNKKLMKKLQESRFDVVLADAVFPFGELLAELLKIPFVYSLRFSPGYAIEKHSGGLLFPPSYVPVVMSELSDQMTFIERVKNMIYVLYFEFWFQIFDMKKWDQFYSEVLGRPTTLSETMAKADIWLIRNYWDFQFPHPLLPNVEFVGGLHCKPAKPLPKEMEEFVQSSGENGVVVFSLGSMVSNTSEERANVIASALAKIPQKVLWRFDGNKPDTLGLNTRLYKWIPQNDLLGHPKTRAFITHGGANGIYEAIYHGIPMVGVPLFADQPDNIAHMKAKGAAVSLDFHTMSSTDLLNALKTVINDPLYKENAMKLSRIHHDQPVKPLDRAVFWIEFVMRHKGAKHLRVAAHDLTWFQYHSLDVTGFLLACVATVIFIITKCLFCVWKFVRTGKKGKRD

Row | SMILES | inhibition at 30 min, 100 µM [1] [%] | inhibition at 120 min, 100 µM [2] [%] | IC50 ([1]; 4-MU glucuronidation, Probit analysis, read-out: IC50 towards UGT1A9) [µM] | inhibition type towards UGT1A9 ([1]; Dixon plot and Lineweaver-Burk plot) | Ki ([1]; second plot of Lineweaver-Burk slopes, read-out: inhibition constant (Ki) towards UGT1A9) [µM]
1 | O=c1c2cc(O)c(O)cc2oc2cc(O)c([C@@H]3O[C@H](CO)[C@@H](O)[C@H](O)[C@H]3O)c(O)c12 [MGF, 1,3,6,7-tetrahydroxyxanthone-C-2-β-D-glucoside] | 8.2 | -61.9 |  |  | 
2 | O=c1c2cc(O)c(O)cc2oc2cc(O)cc(O)c12 [NTR, 1,3,6,7-tetrahydroxyxanthone] | 94.2 | -5.5 | 12.3 | competitively inhibited | 2.8
